# Assays:
# Format in all cases: physicochemical
# [1] = Slurry experiment (ageing in solvents, XRPD analysis)
# Method: (§1) XRPD measurements were performed with the X-ray powder diffractometer Bruker D8 Advance at room temperature using copper filled X-ray tube (40 kV×40 mA) as the X-ray source, CuKα (λ=1.5418 Å), a fixed 0.6 mm divergence slit, 0.0125 mm Ni filter and a 2.5° primary Soller slit, and a LynxEye 1-dimensional detector with a 2.5° secondary Soller slit. Data collection was done in 0.02° steps at a scan speed of 0.3°/s, in the range of 3-33° 2θ.
# Samples of 20 mg of crystalline form 5 (water content 0.3-0.6) of compound (I) were dispensed in 300 μl of various solvents defined in Table 13 at room temperature (RT) or at 40° C. under magnetic stirring (600-1000 rpm). The resulting suspensions were aged for 1 week at the respective temperatures. After the ageing period the samples were recovered, air-dried at RT and analyzed by XRPD.
# [2] = Storage at room temperature in a closed container, re-analysis by XRPD; settings: two weeks
# Method: as §1
# Crystalline form 4 of compound (I) was stored at room temperature in a closed container.
# [3] = Grinding with water in a ball mill, XRPD analysis; settings: 25-30 mg ground with 80 μl of water, Retsch ball mill, 1.5 h, 30 Hz
# Method: as §1
# 25-30 mg of crystalline form 3 of compound (I) was ground with 80 μl of water using a Retsch ball mill. Water addition was done in two steps, with total grinding time of 1.5 h and v=30 Hz.
compound,measurement,setting,value
CS(=O)(=O)N1CCC(COc2coc(CN3Cc4ccccc4C3)cc2=O)CC1 [2-(isoindolin-2-ylmethyl)-5-((1-(methylsulfonyl)piperidin-4-yl)methoxy)-4H-pyran-4-one],solid form after ageing of the suspension (XRPD),"[1]; 20 mg in 300 μl of the solvents of Table 13, RT or 40° C., magnetic stirring, aged for 1 week",crystalline form 5 (water content 0.3)
"CS(=O)(=O)N1CCC(COc2coc(CN3Cc4ccccc4C3)cc2=O)CC1 [Crystalline form 4, 2-(isoindolin-2-ylmethyl)-5-((1-(methylsulfonyl)piperidin-4-yl)methoxy)-4H-pyran-4-one]",solid form after storage (XRPD),[2],mixture of crystalline form 4 and crystalline form 3
"CS(=O)(=O)N1CCC(COc2coc(CN3Cc4ccccc4C3)cc2=O)CC1 [crystalline form 3, 2-(isoindolin-2-ylmethyl)-5-((1-(methylsulfonyl)piperidin-4-yl)methoxy)-4H-pyran-4-one]",solid form after grinding with water (XRPD),[3],crystalline form 2
"CS(=O)(=O)N1CCC(COc2coc(CN3Cc4ccccc4C3)cc2=O)CC1 [form 5, 2-(isoindolin-2-ylmethyl)-5-((1-(methylsulfonyl)piperidin-4-yl)methoxy)-4H-pyran-4-one]",solid form stability in slurry,"[1]; suspensions in the solvents of Table 13, 1 week, RT or 40° C.",stable in conditions with lower water activity

# Reference: patent publication US20240158378A1, “SOLID FORMS OF A 4H-PYRAN-4-ONE STRUCTURED CYP11A1 INHIBITOR” (Orion Corporation, priority 2021, published 2024)
